“Also recorded” adds a separate entry of the source.
What was measured:
[1] = system: children with genetically-confirmed Leigh syndrome; assay: Phase 2 single arm subject-controlled trial in children with Leigh syndrome: clinical outcome scales (NPMDS, GMFM, PedsQL, MD-CRS); type: in vivo, human
[2] = system: intracellular (lymphocyte) glutathione; assay: HPLC determination of lymphocyte glutathione forms (GSH, GS-Pro, GSSG) in treated Leigh syndrome patients; type: in vivo, human
Description: The determination of the different forms of GSH obtained from lymphocytes can be performed in a manner similar to the method previously reported by Pastore et al. (Clin. Chem. (Washington, D.C.) 44, 825-832 (1998)). Briefly, 30 μl of 4 M NaBH4, 20 μl of 2 mM EDTA/DTT, 10 μl of 1-octanol and 20 μl of 1.8 M HCl are placed in the derivatization vial containing 30 μl of sample. After the mixture is incubated for three min, 100 μl of 1.5 M N-ethylmorpholine buffer, pH 8.0, 400 μl of distilled water, and 20 μl of 25 mM bromobimane are added. After an additional three-min incubation, 40 μl of acetic acid are added and 20 μl (for free GSH) or 80 μl (for GSSG and GS-Pro) of this mixture are injected into the column. The thiol derivatives are quantified by HPLC (Agilent Technologies 1100 HPLC with a fluorescence detector-excitation at 390 nm and an emission at 478 nm). The analytes are separated for detection using a C18 column (Hypersil ODS; 150×4.6 mm, 3 micron) at 1.5 ml/min using an aqueous phase of aqueous 30 mM ammonium nitrate and 40 mM ammonium formate at pH 3.6 with an increasing acetonitrile gradient. HPLC determinations of the various forms of GSH are carried out on lymphocytes sonicated three times for two sec in 0.1 ml of 0.1 M potassium-phosphate buffer, pH 7.2 using a Model VC 130 Vibra Cell™ ultrasonic processor. For free GSH determinations, 100 μl of 12% sulfosalicylic acid are added to 50 μl of cells lysate, and analytes content on the acid-soluble fraction are determined. The protein pellet is dissolved in 150 μl of 0.1 N NaOH, and protein bound glutathione (GS-Pro) determined. For GSSG determination, cells are sonicated in the presence of 5 mM N-ethylmaleimide (NEM); 100 μl of 12% sulfosalicylic acid are added to 50 μl homogenates, and analytes content on the acid-soluble fraction are determined. Protein concentrations are quantified by BCA-protein assay.
(§1) Intracellular reduced glutathione (GSH) serves as the cell's principal endogenous antioxidant. Leigh syndrome and other mitochondrial diseases are associated with decreased GSH levels as the high level of oxidative stress and free oxygen radicals deplete cellular GSH reserves. In order to verify alpha-tocotrienol quinone mechanism of action and to correlate this action with clinical benefit, intracellular (lymphocyte) glutathione levels were measured in all patients. The ratio of recued-to-oxidized glutathione and reduced glutathione to total glutathione levels were calculated to assess the effect of alpha-tocotrienol quinone on repleting reduced intracellular glutathione. In addition, total serum thiol levels were measured prior to and following initiation of treatment. Plasma creatine levels—an exploratory biomarker for mitochondrial disease—was also obtained.
For lymphocytes and erythrocyte isolation from whole blood, venous blood samples were layered on the top of a discontinuous gradient consisting of 3 ml of Hystopaque®-1119 and 3 mL of Hystopaque®-1077. Gradients were centrifuged at 750 g for 40 min at 4° C. The lymphocyte layer was transferred to a 15 ml centrifuge tube, diluted to a volume of 10 ml with 0.9% NaCl and centrifuged at 750 g for 40 min. The supernatant was removed and, if necessary, the lysis of erythrocytes was performed by adding 2 ml H2O. After 90 s, 2 ml of 1.8% NaCl solution was added and cells washed four times with 0.9% NaCl. The pellet of lymphocytes was centrifuged at 750 g for 10 min and stored at −80° C. until HPLC analysis.
The determination of the different forms of GSH obtained from lymphocytes was performed, with little modification to a method previously reported (Pastore, A., et al. Clin. Chem. (Washington, D.C.) 44, 825-832 (1998)). Briefly, 30 μl of 4 M NaBH4, 20 μl of 2 mM EDTA/DTT, 10 μl of 1-octanol and 20 μl of 1.8 M HCl were placed in the derivatization vial containing 30 μl of sample. […]

total serum thiol levels = assay: Total thiols in serum/plasma (DTNB, spectrophotometric); type: in vivo, human; settings: three-month time point; p=0.008
Description: as §1
Total thiols were determined in plasma following the method reported by M.-L. Hu (Methods Enzymol. 233, 380-385 (1994)). 50 μl plasma was mixed with 1 ml of the Tris-EDTA buffer and the absorbance at 412 nm was measured. Then, 20 μl of 10 mM DTNB were added. After 15 min incubation at room temperature, the absorption at 412 nm (ε=13,600 cm^−1M^−1) was measured together with a DTNB blank.

plasma creatine = assay: Plasma creatine levels (exploratory biomarker for mitochondrial disease); type: in vivo, human; settings: p=0.15
Description: as §1

[3] = system: children with genetically-confirmed Leigh syndrome; assay: Safety and tolerability in the Leigh syndrome trial; type: in vivo, human
Description: There were three serious adverse events due to intercurrent illness during the three month trial (two cases of bronchitis and one case of salmonellosis, all resolved). […] All recorded values were within the normal range for the clinical laboratories used for the analysis.
All subjects received 100 mg of alpha-tocotrienol quinone three times daily orally or via gastrostomy tube. Total treatment length was three months, with an extension phase for children who completed the initial treatment period. All adverse and serious adverse events were tracked in the trial database. In addition, all held doses due to intolerance of alpha-tocotrienol quinone or any other reason were also recorded.

[4] = system: Leigh syndrome (SURF1) primary cells; assay: In vitro protection of patient primary cells against glutathione depletion-mediated apoptotic cell death; type: cell-based, human
Description: (§2) The initial clinical dose was selected based on laboratory and human patient pharmacokinetic modeling data. Specifically, a three-compartment model for oral administration was employed that included GI absorption delay, as well as one central and one peripheral compartment. A plasma trough drug concentration was targeted 10-20 fold above the ˜10 nM in vitro EC50 value of alpha-tocotrienol quinone that protected Leigh syndrome (SURF1) primary cells against glutathione depletion-mediated apoptotic cell death. Based on serum values of alpha-tocotrienol quinone obtained in two Leigh syndrome subjects after a single 100 mg dose of alpha-tocotrienol quinone was administered, a clinical dose of 100 mg three times daily was calculated and selected as the initial dose. […] This was consistent with the in vitro target dose and was confirmed in multiple pediatric subjects with inherited mitochondrial disease (Enns, G. M., et al., Mol. Genet. Metab. 105, 91-102 (2012); Blankenberg, F., et al., Ann. Neurol. 70, S148-S148 (2011)). This dose was also safely below the preclinical no observed adverse effect level (NOAEL).

[5] = Plasma trough drug concentration in Leigh syndrome subjects; type: in vivo; settings: 100 mg three times daily, eight hours post dosing
Description: as §2

[6] = three months, 100 mg orally three times daily, p=0.01
[7] = LS patients after six-months treatment, n = 10

CC(C)=CCC/C(C)=C/CC/C(C)=C/CC[C@@](C)(O)CCC1=C(C)C(=O)C(C)=C(C)C1=O [alpha-tocotrienol quinone]
clinical disease progression ([1]; all children, three months, regardless of age, genotype, severity): arrest of disease progression and reversal
NPMDS score, patient 1, earlier value ([1]; patient 1, before continued treatment to six months): 23.5
NPMDS score, patient 1, later value ([1]; patient 1, treated for six months): 21.1
GMFM score, patient 2 ([1]; patient 2, at six months, increased from 7.6): 19.8
NPMDS score, patient 2, earlier value ([1]; patient 2, before continued treatment to six months): 54
change in GMFM score, patient 2 ([1]; patient 2, following three months of treatment): no change
NPMDS score, patient 2, later value ([1]; patient 2, treated for six months): 46
NPMDS score, patient 3, earlier value ([1]; patient 3, before continued treatment to six months): 27.8
NPMDS score, patient 3, later value ([1]; patient 3, treated for six months): 25.7
change in GMFM score, patient 7 ([1]; patient 7, score 97.5 prior to treatment (maximum 100)): did not change
clinical outcomes (NPMDS, neuromuscular function, health related quality of life, dystonia and spasticity), FIG. 1 ([1]; prior to vs following three months of treatment): significant improvement
average improvement in total NPMDS score from baseline ([1]; three months): 25%
NPMDS sections 1-3 (organ system function), mean improvement ([1]; three months, 100 mg orally three times daily, p=0.005): 7.1
GMFM, mean improvement [1, 6]: 8.9
NPMDS section 4 (quality of life), average improvement [1, 6]: 4.6
PedsQL Neuromuscular Module, mean improvement ([1]; three months, 100 mg orally three times daily, p=0.03): 14.6
Movement Disorder-Childhood Rating Scale (MD-CRS), improvement in each child ([1]; three months, secondary endpoint): one class
time to clinical response ([1]; universal and durable): within eight weeks
GS-Pro, lymphocytes, median [2, 7]: 0.57 nmol/mg proteins
GSH, lymphocytes, median [2, 7]: 28.92 nmol/mg proteins
GSSG, lymphocytes, median [2, 7]: 1.47 nmol/mg proteins
Tot GSH, lymphocytes, median [2, 7]: 32.47 nmol/mg proteins
overall glutathione charge (GSSG/GSH and GSSG/total glutathione ratios), FIG. 2 ([2]; all patients, over treatment time): rapid normalization
oxidized-to-reduced glutathione levels after treatment ([2]; decrease from baseline ratio mean 3.1+/-2.1, p=0.005): 0.25
time to changes in reduced glutathione levels and oxidized-to-reduced glutathione ratios ([2]; in most of the patients): ≤ 4 weeks
time to biochemical response (glutathione charge) ([2]; in several subjects, preceding clinical response): within two weeks
reduced glutathione in isolated lymphocytes after treatment ([2]; increase from 8.5 at baseline, p=0.002): 25.1 nmol/mg cell protein
oxidized glutathione after treatment ([2]; reduction, p=0.005): 0.25 nmol/mg cell protein
total serum thiol levels, mean change (total serum thiol levels): 0.14
plasma creatine, overall average decrease (plasma creatine): 20.2 points
clinical chemistry laboratory parameters incl. liver and kidney function tests and coagulation parameters ([3]; three month trial): no abnormalities
other reported adverse conditions ([3]; three month trial): mild sleepiness and hypotonia
serious adverse events due to intercurrent illness ([3]; three month trial, two bronchitis, one salmonellosis, all resolved): three
drug related adverse events ([3]; three months, 100 mg three times daily): No drug related adverse events; also recorded: not associated with any drug-induced adverse events
EC50 [4]: ~0.01 µM
average trough concentration [5]: ~200 nM

— US20150216820A1, “QUINONE DERIVATIVES FOR USE IN THE MODULATION OF REDOX STATUS OF INDIVIDUALS” (Edison Pharmaceuticals, Inc., priority 2012, published 2015)
